Experimental data as given in PubChem BioAssay (NCI).
Several values for one entry are separate records, joined by “and”; a condition that tells them apart may be missing. Equal values may be shown once.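 Cultured in 96-well plates, cells were exposed to test compound for 48 hours across five concentrations. Here, GI50 denotes the concentration required for 50% inhibition of growth. TGI is the concentration that stops growth completely.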

Key:
Assay in all cases: DTP human tumour cell line panel, 48 h
[1] = system: HT29 colon
[2] = system: SF-295 CNS
[3] = system: SK-MEL-2 melanoma
[4] = system: SW-620 colon
[5] = system: CCRF-CEM leukemia
[6] = system: SR leukemia
[7] = system: LOX IMVI melanoma
[8] = system: 786-0 renal
[9] = system: SNB-75 CNS
[10] = system: CAKI-1 renal

Structure (SMILES)	TGI [1]	TGI [2] [µM]	TGI [3] [µM]	TGI [4]	TGI [5] [µM]	TGI [6] [µM]	TGI [7] [µM]	TGI [8] [µM]	TGI [9]	GI50 [1]	GI50 [2] [µM]	GI50 [3] [µM]	GI50 [4]	GI50 [6] [µM]	GI50 [10]	TGI [10]	GI50 [7] [µM]	GI50 [8] [µM]	GI50 [9]	GI50 [5] [µM]
COc1ccc(Br)c(C(=O)N2CCc3ccccc32)c1N	> 100 µM	> 100	84.5	> 100 µM	> 100	79.1	> 100	> 100	90.3 µM	–	–	–	–	–	–	–	–	–	–	–
CCOC1Oc2ccc(C)cc2C(=O)/C1=C\Nc1ccc(S(N)(=O)=O)cc1 (configuration not stated)	> 50 µM	35.7	> 50	> 50 µM	–	> 50	> 50	13.6	> 50 µM	15.6 µM	12.6	24.3	15.3 µM	9.23	10.6 µM	23.3 µM	13.7	6.88	18.5 µM	–
Cc1cc(Cl)ccc1NC(=O)C1C(=O)N(c2ccc(Cl)cc2C)C(=O)/C1=N\NC(N)=S (configuration not stated)	35.4 µM	86.4	–	> 100 µM	56.5	–	–	> 100	–	–	–	–	–	–	–	–	–	–	–	–
Cc1ccc2ccc(-c3ccccc3)c3c2c1C(=O)c1ccccc1C3=O	> 100 µM	> 100	> 100	> 100 µM	> 100	> 100	> 100	> 100	68.7 µM	–	–	–	–	–	–	–	–	–	–	–
Cc1cc(S(N)(=O)=O)c(S/C(=N\NS(=O)(=O)c2ccccc2)c2ccc(Cl)cc2)cc1Cl	> 100 µM	> 100	–	> 100 µM	> 100	> 100	> 100	> 100	–	> 100 µM	22.5	–	> 100 µM	49.2	> 100 µM	> 100 µM	> 100	> 100	–	99.7
COc1cc(OC)c2c(=O)c3cccc([N+](=O)[O-])c3n(C)c2c1	> 100 µM	> 100	> 100	> 100 µM	> 100	–	> 100	> 100	> 100 µM	–	–	–	–	–	–	> 100 µM	–	–	–	–
Clc1ccc(CN2CCCN(Cc3ccc(Cl)cc3)C2c2cc3ccccc3c3ccccc23)cc1	> 100 µM	> 100	44.1	> 100 µM	–	> 100	> 100	> 100	78.5 µM	–	–	–	–	–	–	> 100 µM	–	–	–	–
COc1cc(-c2nn(-c3cccc(NC(=O)CCNc4ccc(N5CCOCC5)cc4)c3)cc2-c2ccncc2)ccc1Cl	33.4 µM	26	5.64	> 100 µM	> 100	9.09	13	34.7	> 100 µM	2.84 µM	2.09	2.07	3.55 µM	2.13	–	–	2.6	2.87	4.22 µM	2.95
CC(C)OP(=O)(O)c1ncc(-c2ccc(C(F)(F)F)cc2)c(NC2CCCCCC2)n1	> 100 µM	> 100	–	> 100 µM	> 100	–	–	> 100	> 100 µM	> 100 µM	> 100	–	> 100 µM	–	> 100 µM	> 100 µM	–	> 100	> 100 µM	> 100
Cc1ccc(C2CC(c3ccc(Nc4ccnc5cc(Cl)ccc45)cc3)=NN2C=O)cc1 (configuration not stated)	> 100 µM	> 100	–	> 100 µM	> 100	10.2	> 100	> 100	> 100 µM	6.09 µM	4	–	> 100 µM	3.18	> 100 µM	> 100 µM	4.11	50.9	> 100 µM	2.25
C1=CC2CCC1CN2CCC1CNc2ccccc21 (configuration not stated)	> 100 µM	> 100	> 100	> 100 µM	> 100	> 100	> 100	> 100	> 100 µM	–	–	–	–	–	–	–	–	–	–	–
COc1cc(N(C)C)c(OC)cc1C=C1C=CC=C1	> 100 µM	> 100	> 100	> 100 µM	> 100	> 100	–	> 100	–	–	–	–	–	–	–	–	–	–	–	–
Nc1ccccc1C#Cc1ccccc1C#Cc1cccs1	49 µM	37.3	73.5	41.1 µM	70.1	–	27.5	31	> 100 µM	19.4 µM	16.1	30.2	18 µM	–	11 µM	25.1 µM	14	16.3	82.7 µM	19.9
C[C@H]1CC[P+](C)(c2ccccc2)C1 (some centres not stated)	> 100 µM	> 100	> 100	> 100 µM	> 100	> 100	> 100	> 100	> 100 µM	–	–	–	–	–	–	–	–	–	–	–
CCCCCCCCCCCCCCCC[n+]1ccccc1	0.765 µM and 1.26 µM	1.42	1.76	1.57 µM and 1.94 µM	1.33	–	1.09	1.91	1.72 µM and 2.78 µM	0.199 µM and 0.25 µM	0.311	0.468	0.391 µM and 0.488 µM	–	0.616 µM and 1.13 µM	3.38 µM and 10.2 µM	0.242	0.548	0.528 µM and 0.609 µM	0.281
COc1ccc(C)cc1NC(=S)C#N	> 100 µM	> 100	> 100	> 100 µM	> 100	–	> 100	> 100	> 100 µM	–	–	–	–	–	–	> 100 µM	–	–	–	–
COc1cc(/C=C2\SC(N3CCCCC3)=NC2=O)ccc1OCCCCCCOc1ccc(/C=C2\SC(N3CCCCC3)=NC2=O)cc1OC	30.4 µM	47.5	93.9	48.3 µM	–	65.8	35.7	27.8	6.4 µM	8.38 µM	13.7	21.8	14.9 µM	9.16	22.7 µM	84.7 µM	8.35	7.71	2.34 µM	–
CCCCC1(C(NC(=O)c2ccccc2Cl)c2ccncc2)C(=O)N(c2ccccc2)N(c2ccccc2)C1=O (configuration not stated)	> 100 µM	> 100	> 100	> 100 µM	> 100	93.9	> 100	> 100	71.4 µM	–	–	–	–	–	–	–	–	–	–	–
